# Reference: article PMC10769324 (bioRxiv, 2024)
# Key:
# [1] = biological target: T1, 5-HT2A (Homo sapiens, UniProt P28223); assay type: binding; settings: [3H]-LSD 0.5 nM, HEK293 membranes; for log(Ki): printed as log(Ki) with negative sign
# [2] = biological target: T1, 5-HT2A; settings: Gαq dissociation vs β-arrestin2 recruitment, versus 5-HT
# T1 sequence (P28223 whole entry): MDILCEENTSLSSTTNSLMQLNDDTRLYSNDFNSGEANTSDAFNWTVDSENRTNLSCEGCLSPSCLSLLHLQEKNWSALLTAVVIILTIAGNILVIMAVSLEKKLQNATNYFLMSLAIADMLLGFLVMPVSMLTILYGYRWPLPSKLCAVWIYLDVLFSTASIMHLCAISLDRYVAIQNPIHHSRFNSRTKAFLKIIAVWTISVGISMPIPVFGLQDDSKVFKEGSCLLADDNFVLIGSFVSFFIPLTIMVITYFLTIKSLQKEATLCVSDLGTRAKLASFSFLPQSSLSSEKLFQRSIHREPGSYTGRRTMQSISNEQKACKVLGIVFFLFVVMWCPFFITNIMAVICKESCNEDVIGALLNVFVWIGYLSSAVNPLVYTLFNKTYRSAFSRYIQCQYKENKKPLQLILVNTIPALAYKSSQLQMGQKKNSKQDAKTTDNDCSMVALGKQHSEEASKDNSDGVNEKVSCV
SMILES,log(Ki) [1],Ki [1] [µM],Apparent Bias Factor [2]
Clc1ccc(C#CCN2CCCC(c3ccn[nH]3)C2)cc1 (stereo not shown) [Compound Z1348472291],−6.65 ± 0.083,–,–
COc1ccc(COCCN(C)C(C)Cc2ccc(O)cc2)cc1 (stereo not shown) [Compound Z1441676226],−6.77 ± 0.087,–,–
Cc1cccc(OCCCC(=O)N2CCNCc3ccccc32)c1 [Compound Z2393190959],−6.51 ± 0.085,–,–
c1ccc(O[C@H]2CCN(Cc3ccc(-c4ccn[nH]4)o3)C2)cc1 [Compound Z2449215308],−6.79 ± 0.100,0.162,–
Oc1ccc(C2=CCN(CC3CC34CC4)CC2)cc1 (stereo not shown) [Compound Z2945615615],−7.62 ± 0.104,0.024,–
C=CCNC(=O)C(C)N1CCCC(c2ccc(O)cc2)C1 (stereo not shown) [Compound Z3517963976],−6.95 ± 0.085,0.113,–
O=C(c1cc(C2CCNC2)[nH]n1)N1CCC(c2cccc(Cl)c2)C1 (stereo not shown) [Compound Z3808146201],−6.51 ± 0.096,–,–
CCN(Cc1cc(Br)ccc1O)C(=O)C(N)Cc1ccco1 (stereo not shown) [Compound Z3865153101],−6.94 ± 0.099,0.114,–
C=C/C=C/CCN1CCC(O)(c2cccc(Br)c2)C1 (stereo not shown) [Compound Z5247693129],−6.49 ± 0.094,–,–
CC(C)C(N)CCN(C)C(=O)C(=O)Nc1cc2ccccc2cc1Cl (stereo not shown) [Compound Z5247694451],−7.15 ± 0.073,–,–
CN(C(=O)c1cn[nH]n1)C1CCN(CCc2cccc(Cl)c2Cl)C1 (stereo not shown) [Compound Z7619689892],−7.78 ± 0.077,0.017,–
COc1ccccc1CC1CCN(CC(=O)c2cc(C)[nH]c2C)C1 (stereo not shown) [Compound Z7619689903],−6.46 ± 0.086,0.344,–
NC1Cc2ccccc2N(Cc2cc(O)cc(Br)c2)C1 (stereo not shown) [Compound Z7619689909],−7.14 ± 0.078,0.072,–
NCC1Cc2cc(F)ccc2N(C(=O)Cc2cc(F)ccc2Br)C1 (stereo not shown) [Compound Z7704262288],–,0.015,–
NCCc1c[nH]c2ccc(O)cc12 [serotonin],–,–,1.0
